From US10105357B2, “Indication of antibiotic drugs for preparation of cancer inhibition pharmaceutical composition” (LAUNX BIOMEDICAL CO., LTD., priority 2014, dated 2018) come the findings set out here.

As a reminder, the viability is a read-out of living cells in per cent, often relative to untreated cells.

Where a name gives a salt, the structure may show the parent alone. Read-outs that look alike come from different tables or passages of the source.

Holding throughout (assay type): cell-based, human
One experiment relates to cancer cell lines. As to the kind of experiment: Cell viability analysis (WST-1) on cancer cell lines. To be noted: drug 10 μM, 72 hours, WST-1; Table 3. (In general: Tetrazolium assays rely on reduction of a dye to a coloured formazan, in cell work by metabolically active cells.)
The test system of experiment [1] is HI650 (Lung Adenocarcinoma). The experiment is described as follows: Cell viability analysis, lung cancer HI650. To be noted: Homo sapiens.
Experiment [2] relates to A549 (Lung Adenocarcinoma). As to the kind of experiment: Cell viability analysis, lung cancer A549. To be noted: Homo sapiens.
For experiment [3], the system named is AGS (Gastric Adenocarcinoma). As to the kind of experiment: Cell viability analysis, gastric cancer AGS. To be noted: Homo sapiens.
For experiment [4], the system named is MKN-45 (Gastric Adenocarcinoma). As to the kind of experiment: Cell viability analysis, gastric cancer MKN-45. To be noted: Homo sapiens.
Experiment [5] has as its system HepG2 (Hepatocellular Carcinoma). As to the kind of experiment: Cell viability analysis, hepatic cancer HepG2. To be noted: Homo sapiens.
The subject of experiment [6] is LoVo (Colorectal Adenocarcinoma). As to the kind of experiment: Cell viability analysis, colon cancer LoVo. To be noted: Homo sapiens, LoVo.
Experiment [7] deals with A375 (Amelanotic Melanoma). As to the kind of experiment: Cell viability analysis, skin cancer A375. To be noted: Homo sapiens.
Experiment [8] deals with HeLa (Cervix Adenocarcinoma). As to the kind of experiment: Cell viability analysis, cervical cancer HeLa. To be noted: Homo sapiens, HeLa.
For experiment [9], the system named is PC3 (p53−) (Prostate Adenocarcinoma). As to the kind of experiment: Cell viability analysis, prostate cancer PC3. To be noted: Homo sapiens.
Experiment [10] has as its system TSGH-8301 (Urinary Bladder Carcinoma). The experiment is described as follows: Cell viability analysis, bladder cancer TSGH-8301. To be noted: Homo sapiens.
The subject of experiment [11] is MCF7 (Mammary Gland, Adenocarcinoma). As to the kind of experiment: Cell viability analysis, breast cancer MCF7. To be noted: Homo sapiens.
The test system of experiment [12] is HL-60 (Acute Promyelocytic Leukemia). The experiment is described as follows: Cell viability analysis, leukemia HL-60. To be noted: Homo sapiens.
The mark [13] stands for this setting: NCI-H1650, 72 h, read-out: cell viability (survival rate), H1650, drug 10 μM, 72 hours, WST-1, OD450 nm.
The mark [14] stands for this setting: A549, 72 h, read-out: cell viability (survival rate), A549, drug 10 μM, 72 hours, WST-1, OD450 nm.
Setting [15] is: 72 h, read-out: cell viability (survival rate), AGS, drug 10 μM, 72 hours, WST-1, OD450 nm.
[16] abbreviates: MKN-45, 72 h, read-out: cell viability (survival rate), MKN-45, drug 10 μM, 72 hours, WST-1, OD450 nm.
[17] abbreviates: HepG2, 72 h, read-out: cell viability (survival rate), HepG2, drug 10 μM, 72 hours, WST-1, OD450 nm.
Setting [18] is: 72 h, read-out: cell viability (survival rate), LoVo, drug 10 μM, 72 hours, WST-1, OD450 nm.
The mark [19] stands for this setting: A-375, 72 h, read-out: cell viability (survival rate), A375, drug 10 μM, 72 hours, WST-1, OD450 nm.
Setting [20] is: 72 h, read-out: cell viability (survival rate), HeLa, drug 10 μM, 72 hours, WST-1, OD450 nm.
The mark [21] stands for this setting: 72 h, read-out: cell viability (survival rate), PC3, drug 10 μM, 72 hours, WST-1, OD450 nm.
Where [22] appears, read: 72 h, read-out: cell viability (survival rate), TSGH, drug 10 μM, 72 hours, WST-1, OD450 nm.
The mark [23] stands for this setting: MCF7, 72 h, read-out: cell viability (survival rate), MCF7, drug 10 μM, 72 hours, WST-1, OD450 nm.
[24] abbreviates: HL-60, 72 h, read-out: cell viability (survival rate), HL-60, drug 10 μM, 72 hours, WST-1, OD450 nm.
The mark [25] stands for this setting: NCI-H1650, 72 h, drug 10 μM, 72 hours, WST-1, OD450 nm, read-out: cell viability (survival rate), H1650.
Where [26] appears, read: A549, 72 h, drug 10 μM, 72 hours, WST-1, OD450 nm, read-out: cell viability (survival rate), A549.
Setting [27] is: 72 h, drug 10 μM, 72 hours, WST-1, OD450 nm, read-out: cell viability (survival rate), AGS.
Setting [28] is: MKN-45, 72 h, drug 10 μM, 72 hours, WST-1, OD450 nm, read-out: cell viability (survival rate), MKN-45.
The mark [29] stands for this setting: HepG2, 72 h, drug 10 μM, 72 hours, WST-1, OD450 nm, read-out: cell viability (survival rate), HepG2.
[30] abbreviates: A-375, 72 h, drug 10 μM, 72 hours, WST-1, OD450 nm, read-out: cell viability (survival rate), A375.
Where [31] appears, read: 72 h, drug 10 μM, 72 hours, WST-1, OD450 nm, read-out: cell viability (survival rate), HeLa.
[32] abbreviates: 72 h, drug 10 μM, 72 hours, WST-1, OD450 nm, read-out: cell viability (survival rate), PC3.
Where [33] appears, read: 72 h, drug 10 μM, 72 hours, WST-1, OD450 nm, read-out: cell viability (survival rate), TSGH.
[34] abbreviates: MCF7, 72 h, drug 10 μM, 72 hours, WST-1, OD450 nm, read-out: cell viability (survival rate), MCF7.
Setting [35] is: HL-60, 72 h, drug 10 μM, 72 hours, WST-1, OD450 nm, read-out: cell viability (survival rate), HL-60.

As to `Nc1[nH]c(=O)ncc1F` [Flucytosine (Ancobon), Flucytosine], the “inhibition effect on different cancer cell lines” value in the experiment with cancer cell lines was “significant inhibition effect”. The viability at 10 µM was 92.1% in experiment [1] (setting [13]); 91.4% in [2] (setting [14]); 70.7% in [3] (setting [15]); 72.9% in experiment [4] (setting [16]); 93.2% in [5] (setting [17]); 108% in experiment [6] (setting [18]). Besides, the viability at 10 µM in experiment [7] (setting [19]) worked out at 102%; in experiment [8] (setting [20]), 80.9%; in experiment [9] (setting [21]), 108%; in [10] (setting [22]) it was 93.9%; in [11] (setting [23]) it was 75.3%; in [12] (setting [24]), 102%.
With `CC1(C)O[C@@H]2C[C@H]3[C@@H]4C[C@H](F)C5=CC(=O)C=C[C@]5(C)[C@@]4(F)[C@@H](O)C[C@]3(C)[C@]2(C(=O)CO)O1` [Fluocinolone acetonide (Flucort-N), Fluocinolone acetonide], in the experiment with cancer cell lines, the “inhibition effect on different cancer cell lines” value is “significant inhibition effect”. Also, the viability at 10 µM is 58.4% in experiment [1] (setting [25]); 52.5% in experiment [2] (setting [26]); 30% in [3] (setting [27]); 34.9% in [4] (setting [28]); 74.5% in experiment [5] (setting [29]); 52.3% in [6] (setting [18]). The viability at 10 µM is 45.8% in experiment [7] (setting [30]); 46% in [8] (setting [31]); 40.7% in experiment [9] (setting [32]); 38.3% in [10] (setting [33]); 54.2% in experiment [11] (setting [34]); 116% in experiment [12] (setting [35]).
On to `O=C1OC(CN2CCOCC2)CN1/N=C/c1ccc([N+](=O)[O-])o1` (centres unmarked) [Furaltadone HCl], for which the “inhibition effect on different cancer cell lines” value with cancer cell lines is recorded as “significant inhibition effect”. The viability at 10 µM was found to be 83.1% in [1] (setting [13]); 67.9% in experiment [2] (setting [14]); 68.2% in experiment [3] (setting [15]); 72.6% in experiment [4] (setting [16]); 83.2% in [5] (setting [17]); 62.2% in experiment [6] (setting [18]). The viability at 10 µM in [7] (setting [19]) was 66%; in experiment [8] (setting [20]), 64%; in experiment [9] (setting [21]), 99.2%; in experiment [10] (setting [22]), 81.3%; in experiment [11] (setting [23]) it was 103%; in experiment [12] (setting [24]) it was 64.6%.
As for `Nc1nc(O)c2ncn(COC(CO)CO)c2n1` [Ganciclovir], in the experiment on cancer cell lines, the “inhibition effect on different cancer cell lines” value is “significant inhibition effect”. Further, the viability at 10 µM in experiment [1] (setting [13]) was 97.3%; in experiment [2] (setting [14]) it was 104%; in experiment [3] (setting [15]), 106%; in [4] (setting [16]) it was 87%; in experiment [5] (setting [17]), 109%; in experiment [6] (setting [18]), 99.9%. For the same molecule, the viability at 10 µM in [7] (setting [19]) was determined as 94.8%; in experiment [8] (setting [20]), 107%; in experiment [9] (setting [21]), 71.8%; in [10] (setting [22]) it was 103%; in experiment [11] (setting [23]), 68.6%; in experiment [12] (setting [24]), 98.7%.
For the molecule `COc1c(N2CCNC(C)C2)c(F)cc2c(=O)c(C(=O)O)cn(C3CC3)c12` (centres unmarked) [Gatifloxacin], the “inhibition effect on different cancer cell lines” value in the experiment on cancer cell lines is reported as “significant inhibition effect”. Also, the viability at 10 µM stood at 47.2% in experiment [1] (setting [25]); 96% in experiment [2] (setting [26]); 71.4% in experiment [3] (setting [27]); 84.2% in [4] (setting [28]); 65.6% in experiment [5] (setting [29]); 98.3% in experiment [6] (setting [18]). Also, the viability at 10 µM in [7] (setting [30]) amounted to 63.3%; in experiment [8] (setting [31]), 84.1%; in experiment [9] (setting [32]) it was 82.2%; in experiment [10] (setting [33]) it was 65%; in experiment [11] (setting [34]), 130%; in experiment [12] (setting [35]), 100%.
Regarding `Clc1ccc(C(Cn2ccnc2)OCc2c(Cl)cccc2Cl)c(Cl)c1` (centres unmarked) [Isoconazole nitrate (Travogen), Isoconazole nitrate], in the experiment with cancer cell lines, the “inhibition effect on different cancer cell lines” value is listed as “significant inhibition effect”. Also, the viability at 10 µM in experiment [1] (NCI-H1650, drug 10 μM, 72 hours, WST-1, OD450 nm, read-out: cell viability (survival rate), H1650) was 102%; in experiment [2] (A549, drug 10 μM, 72 hours, WST-1, OD450 nm, read-out: cell viability (survival rate), A549), 91.7%; in experiment [3] (drug 10 μM, 72 hours, WST-1, OD450 nm, read-out: cell viability (survival rate), AGS), 74.8%; in experiment [4] (MKN-45, drug 10 μM, 72 hours, WST-1, OD450 nm, read-out: cell viability (survival rate), MKN-45), 126%; in experiment [5] (HepG2, drug 10 μM, 72 hours, WST-1, OD450 nm, read-out: cell viability (survival rate), HepG2), 99.4%; in experiment [6] (drug 10 μM, 72 hours, WST-1, OD450 nm, read-out: cell viability (survival rate), LoVo) it was 102%. In addition, the viability at 10 µM stood at 95% in experiment [7] (A-375, drug 10 μM, 72 hours, WST-1, OD450 nm, read-out: cell viability (survival rate), A375); 165% in experiment [8] (drug 10 μM, 72 hours, WST-1, OD450 nm, read-out: cell viability (survival rate), HeLa); 82.5% in [9] (drug 10 μM, 72 hours, WST-1, OD450 nm, read-out: cell viability (survival rate), PC3); 88.2% in [10] (drug 10 μM, 72 hours, WST-1, OD450 nm, read-out: cell viability (survival rate), TSGH); 95.1% in experiment [11] (MCF7, drug 10 μM, 72 hours, WST-1, OD450 nm, read-out: cell viability (survival rate), MCF7); 49.2% in experiment [12] (HL-60, drug 10 μM, 72 hours, WST-1, OD450 nm, read-out: cell viability (survival rate), HL-60).
In the case of `NNC(=O)c1ccncc1` [Isoniazid (Tubizid), Isoniazid], the “inhibition effect on different cancer cell lines” value in the experiment on cancer cell lines is recorded as “significant inhibition effect”. The viability at 10 µM turned out to be 64.7% in experiment [1] (setting [25]); 45.7% in [2] (setting [26]); 50.5% in experiment [3] (setting [27]); 44.6% in [4] (setting [28]); 110% in experiment [5] (setting [29]); 71% in [6] (setting [18]). Further, the viability at 10 µM in experiment [7] (setting [30]) was found to be 54.9%; in experiment [8] (setting [31]) it was 77.9%; in experiment [9] (setting [32]), 39.6%; in experiment [10] (setting [33]), 42.2%; in [11] (setting [34]), 44.7%; in experiment [12] (setting [35]) it was 102%.
As for `CC(C)NCC(O)c1ccc(O)c(O)c1` (centres unmarked) [Isoprenaline hydrochloride], the “inhibition effect on different cancer cell lines” value with cancer cell lines is “significant inhibition effect”. Besides, the viability at 10 µM in experiment [1] (setting [13]) was found to be 39.9%; in [2] (setting [14]) it was 56.1%; in experiment [3] (setting [15]), 72%; in experiment [4] (setting [16]), 79.6%; in [5] (setting [17]) it was 81.4%; in experiment [6] (setting [18]), 80.6%. The viability at 10 µM in experiment [7] (setting [19]) is 90%; in experiment [8] (setting [20]), 91.1%; in [9] (setting [21]), 73.6%; in experiment [10] (setting [22]), 81.6%; in experiment [11] (setting [23]), 73.2%; in [12] (setting [24]), 96.8%.
